Solubility in water and arterial blood pressure data for four compounds are collected here from patent publication US7018979B1, “Method for using potassium channel agonists for delivering a medicant to an abnormal brain region and/or a malignant tumor” (Cedars-Sinai Medical Center, priority 2000, dated 2006).

For data set [1] the following is noted: cited from earlier work.
A short description of data set [2]: Arterial blood pressure monitored during intracarotid infusion. As to conditions: higher doses, 100 and 110 μg/kg/min.

Each structure is given as a SMILES string. “Also recorded” adds a separate entry of the source. Structures can show the parent of a compound that is named as a salt.

Regarding `CC(N/C(=N\C#N)Nc1ccncc1)C(C)(C)C` (racemic) [pinacidil, (+/−)-N-cyano-N′-4-pyridinyl-N″-(1,2,2-trimethylpropyl)-guanidine], in data set [1], the solubility in water result is “insoluble in water; also recorded: not easily dissolved in water”.

Regarding `O=c1[nH]c2cc(C(F)(F)F)ccc2n1-c1cc(C(F)(F)F)ccc1O` [NS-1619, 1,3-dihydro-1-[2-hydroxy-5-(trifluoromethyl)phenyl]-5-(trifluoromethyl)-2H-benzimidazol-2-one], the arterial blood pressure entry in data set [2] is recorded as “significant drop”. In addition, the solubility in water result in data set [1] is “not easily dissolved in water”.

On to `CC1=NS(=O)(=O)c2cc(Cl)ccc2N1` [diazoxide], for which the solubility in water entry in data set [1] was “not easily dissolved in water”.

On to `Nc1cc(N2CCCCC2)nc(N)[n+]1OS(=O)(=O)[O-]` [minoxidil sulfate], for which, in data set [1], the solubility in water result was “not easily dissolved in water”.
